Where two headings read alike, the source gives them in different places.
Assays:
Format in all cases: in vivo
[1] = system: larvae of the fall army worm (Spodoptera frugiperda); experiment: Spodoptera frugiperda - test (sprayed cabbage leaves); settings: mortality
Description: (§1) Solvent: 7 parts by weight of dimethylformamide
(§2) Emulsifier: 2 parts by weight of alkylaryl polyglycolether
(§3) To produce a suitable preparation of active compound, 1 part by weight of active compound is mixed with the stated amount of solvent and emulsifier, and the concentrate is diluted with emulsifier-containing water to the desired concentration.
Cabbage leaves (Brassica oleracea) are treated by being sprayed into the preparation of the active compound of the desired concentration and are infested with larvae of the fall army worm (Spodoptera frugiperda) as long as the leaves are still moist.
After the specified period of time, the mortality in % is determined. 100% means that all the caterpillars have been killed; 0% means that none of the caterpillars have been killed.

[2] = system: Blumeria graminis f. sp. hordei; experiment: Blumeria test (barley)/SAR 5d; settings: 1000 ppm, evaluated 7 days after inoculation
[3] = system: larvae of the Brown plant hopper (Nilaparvata lugens); experiment: Nilaparvata lugens - test (sprayed rice plants); settings: mortality
Description: as §1, §2, §3
Rice plants (Oryza sativa) are treated by being sprayed with the preparation of the active compound at the desired concentration and are infested with larvae of the Brown plant hopper (Nilaparvata lugens) as long as the leaves are still moist.
After the specified period of time, the mortality in % is determined. 100% means that all the hopper larvae have been killed; 0% means that none of the hopper larvae have been killed.

[4] = system: larvae of the mustard beetle (Phaedon cochleariae); experiment: Phaedon cochleariae - test (sprayed cabbage leaves); settings: for Efficacy in % after 3d: Table C-1, mortality; for Efficacy in % after 4d: Table C-2, mortality; for Efficacy in % after 6d: Table C-3, mortality
Description: as §1, §2, §3
Cabbage leaves (Brassica oleracea) are treated by being sprayed with the preparation of the active compound at the desired concentration and are infested with larvae of the mustard beetle (Phaedon cochleariae) as long as the leaves are still moist.
After the specified period of time, the mortality in % is determined. 100% means that all the beetle larvae have been killed; 0% means that none of the beetle larvae have been killed.

[5] = system: rice blast (Pyricularia oryzae); settings: 20 ppm, inoculated 1 day after spraying, evaluated 5 days after inoculation
[6] = system: rice blast (Pyricularia oryzae); settings: 100 ppm, inoculated 5 days after spraying, evaluated 7 days after inoculation

SMILES	Efficacy in % ([2]; Table A-1, 1st leaf)	Efficacy in % ([2]; Table A-2, printed 1st leaf)	Efficacy in % after 3d ([3]; 4 ppm)	Efficacy in % after 4d ([4]; 4 ppm)	Efficacy in % [5]	Efficacy in % [6]	other results
C/C(=N\C#N)N(C)Cc1ccc(Cl)nc1 [Acetamiprid, acetamiprid]	–	–	–	–	–	–	Efficacy in % after 6d ([1]; 0.16 ppm): 15%
CNC(=O)c1cc(Cl)cc(C)c1NC(=O)c1cc(Br)nn1-c1ncccc1Cl [Chlorantraniliprole, chlorantraniliprole]	11%	0%	0%	70%	0%	0%	Efficacy in % after 3d ([4]; 0.16 ppm): 0%; Efficacy in % after 4d ([4]; 0.8 ppm): 45%; Efficacy in % after 6d ([4]; 0.8 ppm): 15%; Efficacy in % after 6d ([1]; 0.032 ppm): 15%
CN/C(=N\[N+](=O)[O-])NCc1cnc(Cl)s1 [Clothianidin, clothianidin]	–	–	90%	–	–	–	Efficacy in % after 4d ([4]; 20 ppm): 70%; Efficacy in % after 6d ([4]; 4 ppm): 90%
O=[N+]([O-])NC1=NCCN1Cc1ccc(Cl)nc1 [Imidacloprid, imidacloprid]	–	–	–	–	0%	0%	Efficacy in % after 3d ([4]; 4 ppm): 0%
N#Cc1ccccc1NC(=O)c1snc(Cl)c1Cl [Isotianil, 3,4-dichloro-N-(2-cyanophenyl)-5-isothiazolecarboxamide]	44%	44%	–	–	35%	43%	Efficacy in % after 3d ([3]; 200 ppm): 0%; Efficacy in % after 3d ([4]; 200 ppm): 0%; Efficacy in % after 4d ([4]; 200 ppm): 15%; Efficacy in % after 6d ([4]; 200 ppm): 0%; Efficacy in % after 6d ([1]; 200 ppm): 0%
N#C/N=C1\SCCN1Cc1ccc(Cl)nc1 [Thiacloprid, thiacloprid]	–	–	–	45%	–	–	–
